Source: patent US11512085B2, “Heteroaryl compound having drug activity” (SHANGHAI DUDE MEDICAL TECHNOLOGY CO., LTD, priority 2017, dated 2022)

Legend:
T cells = assay: T cell activation (CD3/CD28 dynabeads, CD69 staining); type: cell-based, Human; conditions: concentration of 10 uM
Description: Biological Embodiment 3: Influences of In-Vitro Test Compounds on PBMC/B/T Cell Activation
4.3 Isolation of B Cells and T Cells
Cell Isolation Programs Shall Refer to […] Kits
4.4.3 Activation of T Cells
The co-culture system is as follows:
Antibody Staining and Data Analysis
Antibody staining was performed within 24 hours […] according to a standard method.
4.5.2 Activation of T Cells
FITC Mouse Anti-Human CD4
PerCP-Cy™5.5 Mouse Anti-Human CD8
LIVE/DEAD Fixable Violet Dead Cell Stain Kit

p-PLCγ/t-PLCγ = assay: Western blotting of p-PLCγ/t-PLCγ in anti-IgG stimulated DOHH2 cells; type: cell-based; conditions: DOHH2 cells, 5, 100, 2000 nM, 1 h, anti-IgG stimulation
Description: Biological Embodiment 4: Analysis of Influences of Test Compounds on p-Btk/t-Btk, p-PLCγ/t-PLCγ and p-Erk/t-Erk Expression Levels of DOHH2 Cells by Virtue of Western Blotting
1) DOHH2 cells on a logarithmic phase were collected;
2) a cell concentration was adjusted to a needed concentration;
3) 2 ml of cell suspension was added into a 6-well plate for performing culture, three different concentrations, that is, 5 nM, 100 nM and 2000 nM, of test samples were respectively set, and each concentration was repeated once;
4) test samples were added into plate wells, and DMSO served as control, wherein a final concentration of the DMSO was 0.1%;
5) culture was performed for 1 h; and […]
6. protein extraction and quantification […]
5) a protein concentration was determined by using Pierce™ BCA Protein Assay Kit; and
6) according to BCA protein quantification results, all samples were diluted to the same final concentration by adding 4×LDS sample buffer and 10× sample reducing agent into the RIPA buffer solution, and the solution was heated at 100° C. for 10 min. […]
10) chemiluminiscence was detected by Tanon 5200 multi.
7. Quantification of strip intensity
Intensity of each strip was quantified by using Image quant densitometry software. […]

WSU-DLCL-2 = assay: In vitro tumor cell proliferation (CellTiter-Glo), WSU-DLCL-2; type: cell-based; conditions: Homo sapiens, WSUDLCL2; WSU-DLCL-2, 72 h; read-out: Growth IC50
Description: (§1) Biological Embodiment 8: Study on Effects of Active Compounds for Inhibiting In Vitro Tumor Cell Proliferation
(§2) Promega CellTiter-Glo cell activity detection kit by luminescence (Promega-G7573).
(§3) Tumor cell lines were cultured in a 5% of CO2 incubator at 37° C. according to respective culture conditions; and periodic passage was performed, and cells positioned in a logarithmic phase were taken for planking.
(§4) 3) 90 μL of cell suspension was added into each well of the culture plate, and a culture solution containing no cell was added into blank control;
(§5) 4) the culture plate was cultured overnight in the 5% of CO2 incubator having relative humidity of 100% at 37° C.
(§6) Preparation of a 400× compound storage plate: the compound was diluted from the maximum concentration gradient to the lowest concentration with DMSO. […]
(§7) The following steps were performed according to the specification of the Promega CellTiter-Glo cell activity detection kit by luminescence (Promega-G7573). […]
(§8) 9) the luminescence signal was detected on the 2104 EnVision plate reader.

OCI-LY19 = assay: In vitro tumor cell proliferation (CellTiter-Glo), OCI-LY19; type: cell-based; conditions: Homo sapiens, OCI-LY19, 72 h; read-out: Growth IC50
Description: as §1, §2, §3, §4, §5, §6, §7, §8

hERG channel = hERG channel (Homo sapiens, UniProt Q12809); assay: hERG current blocking test (whole-cell patch clamp)
hERG channel, sequence (Q12809 whole entry): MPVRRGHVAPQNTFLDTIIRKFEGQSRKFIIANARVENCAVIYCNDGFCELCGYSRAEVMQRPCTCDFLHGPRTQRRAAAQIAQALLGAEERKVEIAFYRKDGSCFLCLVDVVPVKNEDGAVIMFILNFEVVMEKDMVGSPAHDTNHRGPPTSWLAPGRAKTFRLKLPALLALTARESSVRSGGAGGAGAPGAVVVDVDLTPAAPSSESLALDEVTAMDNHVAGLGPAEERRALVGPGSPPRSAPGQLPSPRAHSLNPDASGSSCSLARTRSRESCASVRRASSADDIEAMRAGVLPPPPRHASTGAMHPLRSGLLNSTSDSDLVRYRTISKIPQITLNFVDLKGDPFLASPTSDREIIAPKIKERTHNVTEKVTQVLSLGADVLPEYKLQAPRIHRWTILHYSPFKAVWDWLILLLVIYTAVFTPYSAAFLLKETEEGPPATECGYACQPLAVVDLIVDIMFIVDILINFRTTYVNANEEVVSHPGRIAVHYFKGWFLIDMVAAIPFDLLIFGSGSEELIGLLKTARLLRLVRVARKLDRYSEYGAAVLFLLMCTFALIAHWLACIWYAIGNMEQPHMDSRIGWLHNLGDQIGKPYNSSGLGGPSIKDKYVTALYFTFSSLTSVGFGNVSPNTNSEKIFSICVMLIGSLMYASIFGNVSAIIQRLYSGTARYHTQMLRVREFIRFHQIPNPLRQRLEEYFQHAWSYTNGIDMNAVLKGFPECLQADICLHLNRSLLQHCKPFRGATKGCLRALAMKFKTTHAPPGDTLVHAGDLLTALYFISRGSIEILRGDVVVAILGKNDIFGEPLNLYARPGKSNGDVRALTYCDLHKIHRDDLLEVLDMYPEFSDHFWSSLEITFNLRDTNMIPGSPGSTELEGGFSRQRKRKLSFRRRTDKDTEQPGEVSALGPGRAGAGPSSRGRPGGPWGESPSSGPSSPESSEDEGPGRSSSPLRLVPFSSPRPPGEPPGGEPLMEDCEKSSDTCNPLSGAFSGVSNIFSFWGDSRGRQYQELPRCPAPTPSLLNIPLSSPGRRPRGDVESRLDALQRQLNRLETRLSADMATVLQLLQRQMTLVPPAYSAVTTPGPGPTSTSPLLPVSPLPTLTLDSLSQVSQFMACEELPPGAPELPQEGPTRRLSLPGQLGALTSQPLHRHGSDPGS

C=CC(=O)NN1CCCC(n2nc(-c3ccc(Oc4ccccc4)cc3)c3c(N)ncnc32)C1 (centres unmarked) [Embodiment 6, N-(3-(4-amino-3-(4-phenoxyphenyl)-1H-pyrazolo[3,4-D]pyrimidine-1-yl)-1-piperidyl)-acrylamide]
T cell activity inhibition effect (T cells): T cell activity inhibition effect
relative level of p-PLCγ/t-PLCγ (p-PLCγ/t-PLCγ): obviously decreased
IC50 (WSU-DLCL-2): 0.921 µM
IC50 (OCI-LY19): 6.79 µM
IC50 (hERG channel): 8.06 µM
